In patent publication US9802918B2, “Pyridineamine compounds useful as Pim kinase inhibitors” (Incyte Corporation, priority 2015, dated 2017):

Assays:
Assay type in all cases: biochemical
Pim-2 = Pim-2 (Homo sapiens (Human), UniProt Q9P1W9); test: Pim-2 kinase assay; details: 1 mM ATP; read-out: Pim2 IC50
How it was run: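 Pim-2 (1 nM) with fluorescein-CREBtide ([…]) and 1 mM ATP in Tris pH 7.5, MgCl2, DTT buffer, 2 h at 25 °C. Stopped with EDTA plus Tb-anti-CREB pSer133 antibody; phosphorylation read by TR-FRET after 30 min.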

Pim-1 = Pim-1 (Homo sapiens (Human), UniProt P11309); test: Pim-1 kinase assay; details: 1 mM ATP; read-out: Pim1 IC50
Procedure: Supplementation of the STOP buffer with beads and stopping the reactions were done under reduced light. Prior to the stopping reactions STOP buffer with beads was preincubated for 1 h in the dark at room temperature. After stopping the reactions, plates were incubated for 1 h in the dark at room temperature before reading on a PHERAstar FS plate reader (BMG Labtech) under reduced light.

Pim-3 = Pim-3 (Homo sapiens (Human), UniProt Q86V86); test: Pim-3 kinase assay; details: 1 mM ATP; read-out: Pim3 IC50
How it was run: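 Human Pim-3 at 1.25 pM phosphorylated […] biotin-BAD peptide with 1 mM ATP for 1 h at 25° C, in pH 7.5 Tris buffer with 5 mM MgCl2 and 5 mM DTT. Reactions were stopped with EDTA buffer containing phospho-Bad (Ser112) antibody and AlphaScreen donor/acceptor beads. Plates were read after 1 h dark incubation at room temperature.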

Chain of Pim-2 (Q9P1W9 whole entry): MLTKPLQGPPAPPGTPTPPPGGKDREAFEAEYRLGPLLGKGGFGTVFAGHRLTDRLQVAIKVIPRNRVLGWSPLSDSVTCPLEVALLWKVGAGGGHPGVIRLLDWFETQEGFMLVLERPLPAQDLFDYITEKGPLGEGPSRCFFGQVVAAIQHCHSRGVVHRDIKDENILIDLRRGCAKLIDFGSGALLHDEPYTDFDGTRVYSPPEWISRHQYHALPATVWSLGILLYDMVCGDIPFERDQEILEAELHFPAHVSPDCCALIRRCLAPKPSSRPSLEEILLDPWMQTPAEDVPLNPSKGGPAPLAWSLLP
Chain of Pim-1 (P11309 whole entry): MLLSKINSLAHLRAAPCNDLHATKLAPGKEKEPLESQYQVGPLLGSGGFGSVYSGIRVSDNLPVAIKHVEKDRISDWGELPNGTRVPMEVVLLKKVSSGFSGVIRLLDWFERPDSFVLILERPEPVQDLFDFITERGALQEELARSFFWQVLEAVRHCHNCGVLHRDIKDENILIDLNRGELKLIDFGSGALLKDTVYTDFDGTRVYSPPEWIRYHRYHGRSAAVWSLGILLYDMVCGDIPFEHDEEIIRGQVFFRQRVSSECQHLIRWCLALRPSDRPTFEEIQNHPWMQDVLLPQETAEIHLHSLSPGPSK

Row | Compound | IC50 (Pim-2) | IC50 (Pim-1) | IC50 (Pim-3)
1 | C[C@@H]1C[C@H](N)CN(c2ccncc2NCc2ccc(F)c(-c3c(F)cc(CN4CC[C@H](C#N)C4)cc3F)n2)C1 [Example 54, (S)-1-(4-(6-((4-((3S,5R)-3-amino-5-methylpiperidin-1-yl)pyridin-3-ylamino)methyl)-3-fluoropyridin-2-yl)-3,5-difluorobenzyl)pyrrolidine-3-carbonitrile] | ≤ 0.1 µM | < 0.01 µM | ≤ 0.01 µM
2 | C[C@@H]1C[C@H](N)CN(c2ccncc2NCc2ccc(F)c(-c3c(F)cc(CN4CC[C@@H](F)C4)cc3F)n2)C1 [Example 55, 4-((3S,5R)-3-amino-5-methylpiperidin-1-yl)-N-((6-(2,6-difluoro-4-(((R)-3-fluoropyrrolidin-1-yl)methyl)phenyl)-5-fluoropyridin-2-yl)methyl)pyridin-3-amine] | ≤ 0.1 µM | < 0.01 µM | ≤ 0.01 µM
3 | C[C@@H]1C[C@H](N)CN(c2ccncc2NCc2ccc(F)c(-c3c(F)cc(CN4CC[C@H](F)C4)cc3F)n2)C1 [Example 56, 4-((3S,5R)-3-amino-5-methylpiperidin-1-yl)-N-((6-(2,6-difluoro-4-(((S)-3-fluoropyrrolidin-1-yl)methyl)phenyl)-5-fluoropyridin-2-yl)methyl)pyridin-3-amine] | ≤ 0.1 µM | < 0.01 µM | ≤ 0.01 µM
4 | C[C@H]1CN(c2ccncc2NCc2ccc(F)c(C3=CCCCC3)n2)C[C@@H](N)[C@@H]1O [Example 57] | 0.1 to 1 µM | < 0.01 µM | ≤ 0.01 µM
5 | C[C@@H]1C[C@H](N)CN(c2ccncc2NCc2ccc(F)c(C3CCCCC3)n2)C1 [Example 58, 4-[(3S,5R)-3-Amino-5-methylpiperidin-1-yl]-N-[(6-cyclohexyl-5-fluoropyridin-2-yl)methyl]pyridin-3-amine] | 0.1 to 1 µM | < 0.01 µM | 0.01 to 0.05 µM
6 | COC1(c2cc(F)c(-c3nc(CNc4cnccc4N4C[C@@H](N)[C@H](O)[C@@H](C)C4)ccc3F)c(F)c2)CCOCC1 [Example 59, (3R,4R,5S)-3-Amino-1-{3-[({6-[2,6-difluoro-4-(4-methoxytetrahydro-2H-pyran-4-yl)phenyl]-5-fluoropyridin-2-yl}methyl)amino]pyridin-4-yl}-5-methylpiperidin-4-ol] | 0.1 to 1 µM | < 0.01 µM | ≤ 0.01 µM
7 | COC1(c2cc(F)c(-c3nc(CNc4cnccc4N4C[C@H](C)C[C@H](N)C4)ccc3F)c(F)c2)CCOCC1 [Example 60, 4-[(3S,5R)-3-Amino-5-methylpiperidin-1-yl]-N-({6-[2,6-difluoro-4-(4-methoxytetrahydro-2H-pyran-4-yl)phenyl]-5-fluoropyridin-2-yl}methyl)pyridin-3-amine] | 0.1 to 1 µM | < 0.01 µM | ≤ 0.01 µM
8 | C[C@H]1CN(c2ccncc2NCc2ccc(F)c(-c3c(F)cc(C4(F)CCOCC4)cc3F)n2)C[C@@H](N)[C@@H]1O [Example 61, (3R,4R,5S)-3-Amino-1-{3-[({6-[2,6-difluoro-4-(4-fluorotetrahydro-2H-pyran-4-yl)phenyl]-5-fluoropyridin-2-yl}methyl)amino]pyridin-4-yl}-5-methylpiperidin-4-ol] | ≤ 0.1 µM | < 0.01 µM | ≤ 0.01 µM
9 | C[C@@H]1C[C@H](N)CN(c2ccncc2NCc2ccc(F)c(-c3c(F)cc(C4(F)CCOCC4)cc3F)n2)C1 [Example 62, 4-[(3S,5R)-3-Amino-5-methylpiperidin-1-yl]-N-({6-[2,6-difluoro-4-(4-fluorotetrahydro-2H-pyran-4-yl)phenyl]-5-fluoropyridin-2-yl}methyl)pyridin-3-amine] | ≤ 0.1 µM | < 0.01 µM | ≤ 0.01 µM
10 | C[C@H]1CN(c2ccncc2NCc2ccc(F)c(-c3c(F)cc(C4CCOCC4)cc3F)n2)C[C@@H](N)[C@@H]1O [Example 63, (3R,4R,5S)-3-Amino-1-{3-[({6-[2,6-difluoro-4-(tetrahydro-2H-pyran-4-yl)phenyl]-5-fluoropyridin-2-yl}methyl)amino]pyridin-4-yl}-5-methylpiperidin-4-ol] | ≤ 0.1 µM | < 0.01 µM | ≤ 0.01 µM
11 | C[C@@H]1C[C@H](N)CN(c2ccncc2NCc2ccc(F)c(-c3c(F)cc(C4CCOCC4)cc3F)n2)C1 [Example 64, 4-[(3S,5R)-3-Amino-5-methylpiperidin-1-yl]-N-({6-[2,6-difluoro-4-(tetrahydro-2H-pyran-4-yl)phenyl]-5-fluoropyridin-2-yl}methyl)pyridin-3-amine] | ≤ 0.1 µM | < 0.01 µM | ≤ 0.01 µM
12 | N[C@H]1C[C@@H](C(F)(F)F)CN(c2ccncc2NCc2ccc(F)c(-c3c(F)cc(C4CCOCC4)cc3F)n2)C1 [Example 65, 4-((3S,5R)-3-Amino-5-(trifluoromethyl)piperidin-1-yl)-N-((6-(2,6-difluoro-4-(tetrahydro-2H-pyran-4-yl)phenyl)-5-fluoropyridin-2-yl)methyl)pyridin-3-amine] | ≤ 0.1 µM | < 0.01 µM | ≤ 0.01 µM
13 | C[C@@H]1C[C@H](N)C[C@H](c2ccncc2NCc2ccc(F)c(-c3c(F)cccc3F)n2)C1 [Example 66, 4-[(1R,3S,5S)-3-Amino-5-methylcyclohexyl]-N-{[6-(2,6-difluorophenyl)-5-fluoropyridin-2-yl]methyl}pyridin-3-amine] | 0.1 to 1 µM | < 0.01 µM | ≤ 0.01 µM
14 | C[C@@H]1C[C@H](N)C[C@H](c2ccncc2NCc2ccc(F)c(-c3c(F)cc(C4(O)CCC4)cc3F)n2)C1 [Example 67, 1-(4-{6-[({4-[(1R,3S,5S)-3-Amino-5-methylcyclohexyl]pyridin-3-yl}amino)methyl]-3-fluoropyridin-2-yl}-3,5-difluorophenyl)cyclobutanol] | 0.1 to 1 µM | < 0.01 µM | ≤ 0.01 µM
15 | C[C@@H]1C[C@H](N)C[C@H](c2ccncc2NCc2ccc(F)c(-c3c(F)cc(N4CCOCC4)cc3F)n2)C1 [Example 68, 4-[(1R,3S,5S)-3-Amino-5-methylcyclohexyl]-N-{[6-(2,6-difluoro-4-morpholin-4-ylphenyl)-5-fluoropyridin-2-yl]methyl}pyridin-3-amine] | 0.1 to 1 µM | < 0.01 µM | ≤ 0.01 µM
16 | C[C@@H]1C[C@H](N)CN(c2ccncc2NCc2nc(-c3c(F)cccc3F)sc2N)C1 [Example 69, N-{[5-Amino-2-(2,6-difluorophenyl)-1,3-thiazol-4-yl]methyl}-4-[(3S,5R)-3-amino-5-methylpiperidin-1-yl]pyridin-3-amine] | 1 to 10 µM | < 0.01 µM | ≤ 0.01 µM
17 | C[C@@H]1C[C@H](N)CN(c2ccncc2NCc2ccc(F)c(-c3c(F)cc(N4CC[C@@H](F)C4)cc3F)n2)C1 [Example 70, 4-[(3S,5R)-3-Amino-5-methylpiperidin-1-yl]-N-[(6-{2,6-difluoro-4-[(3R)-3-fluoropyrrolidin-1-yl]phenyl}-5-fluoropyridin-2-yl)methyl]pyridin-3-amine] | 0.1 to 1 µM | < 0.01 µM | ≤ 0.01 µM
18 | C[C@@H]1C[C@H](N)CN(c2ccncc2NCc2ccc(F)c(-c3c(F)cc(N4CCCC(F)C4)cc3F)n2)C1 (stereo partly drawn) [Example 71, 4-[(3S,5R)-3-Amino-5-methylpiperidin-1-yl]-N-({6-[2,6-difluoro-4-(3-fluoropiperidin-1-yl)phenyl]-5-fluoropyridin-2-yl}methyl)pyridin-3-amine] | ≤ 0.1 µM | < 0.01 µM | ≤ 0.01 µM
19 | C[C@@H]1C[C@H](N)CN(c2ccncc2NCc2ccc(F)c(-c3c(F)cc(N4CC(C)(O)C4)cc3F)n2)C1 [Example 72, 1-(4-{6-[({4-[(3S,5R)-3-Amino-5-methylpiperidin-1-yl]pyridin-3-yl}amino)methyl]-3-fluoropyridin-2-yl}-3,5-difluorophenyl)-3-methylazetidin-3-ol] | ≤ 0.1 µM | < 0.01 µM | ≤ 0.01 µM
20 | C[C@H]1CN(c2ccncc2NCc2ccc(F)c(-c3c(F)cc(O[C@@H]4CCOC4)cc3F)n2)C[C@@H](N)[C@@H]1O [Example 73, (3R,4R,5S)-3-Amino-1-(3-{[(6-{2,6-difluoro-4-[(3R)-tetrahydrofuran-3-yloxy]phenyl}-5-fluoropyridin-2-yl)methyl]amino}pyridin-4-yl)-5-methylpiperidin-4-ol] | ≤ 0.1 µM | < 0.01 µM | ≤ 0.01 µM
21 | C[C@@H]1C[C@H](N)CN(c2ccncc2NCc2ccc(F)c(-c3c(F)cc(O[C@@H]4CCOC4)cc3F)n2)C1 [Example 74, 4-[(3S,5R)-3-Amino-5-methylpiperidin-1-yl]-N-[(6-{2,6-difluoro-4-[(3R)-tetrahydrofuran-3-yloxy]phenyl}-5-fluoropyridin-2-yl)methyl]pyridin-3-amine] | ≤ 0.1 µM | < 0.01 µM | ≤ 0.01 µM
22 | C[C@H]1CN(c2ccncc2NCc2ccc(F)c(-c3c(F)cc(O[C@H]4CCOC4)cc3F)n2)C[C@@H](N)[C@@H]1O [Example 75, (3R,4R,5S)-3-Amino-1-(3-{[(6-{2,6-difluoro-4-[(3S)-tetrahydrofuran-3-yloxy]phenyl}-5-fluoropyridin-2-yl)methyl]amino}pyridin-4-yl)-5-methylpiperidin-4-ol] | ≤ 0.1 µM | < 0.01 µM | ≤ 0.01 µM
